# Laboratory results taken from paper PMC8469897, “Transcriptomic Characterization of Odorant Binding Proteins in Cacia cretifera thibetana and Their Association with Different Host Emitted Volatiles” (Insects, 2021).
# Columns and labels:
# CcreOBP6 = test: Fluorescence competitive binding assay with 1-NPN probe, CcreOBP6; parameters: species or system Cacia cretifera thibetana
# Protocol: (§1) The binding affinities of both CcreOBP6 and CcreOBP10 proteins with 20 odor volatiles were determined. The CcreOBP6 and CcreOBP10 proteins from prokaryotic cells were purified by Ni affinity chromatography. Then, 50 mM Tris-HCL buffer solution (pH = 7.4) was prepared, and N-phenyl-1-naphthylamine (1-NPN) was used as a fluorescent probe. For chromatography, the methanol was used as a solvent for fluorescent probe 1-NPN as well as for 20 odor standard volatile samples dissolved in solvent to make a 1 mM solution. These samples were added to a 96 Micro Well TM microtiter plate (NunclonTM) while the multifunctional microplate reader (VARIOSKAN FLASH) excitation light wavelength was set to 337 nm. The scanning wavelength was between 370 to 550 nm, and both excitation and emission slits were set to 5 nm. To determine the CcreOBP6 and CcreOBP10 protein binding constant with the fluorescent probe 1-NPN, a solution was prepared with CcreOBP6 and CcreOBP10 proteins in Tris-HCL (pH = 7.4) buffer with a 2 μM final concentration. The successive concentrations of 2, 4, 6, 8, 12, 16, and 20 μM of 1-NPN were added, and the fluorescence intensity was recorded at the maximum emission wavelength (Em = 410 nm) for each time, and the experiment was repeated three times. The formula for the protein and odor standard dissociation constant was calculated by: Ki = [IC 50]/(1 + [1-NPN]/K 1-NPN) where IC 50 denotes the odor standard concentrations as the fluorescence intensity value was decreased by half, [1-NPN] is the unbound 1-NPN prob concentration, and K 1-NPN is the protein and 1-NPN probe binding constant.
# CcreOBP10 = test: Fluorescence competitive binding assay with 1-NPN probe, CcreOBP10; parameters: species or system Cacia cretifera thibetana
# Protocol: as §1
# males and females = test system: males and females; parameters: method as in PMID 23564737; settings: olfactometer, lower dose; cited from earlier work
# [1] = competitive displacement of 1-NPN
# [2] = 2 μM protein, Tris-HCl pH 7.4, Em 410 nm, read-out: dissociation constant with fluorescent probe 1-NPN
# [3] = Ki = [IC50]/(1 + [1-NPN]/K1-NPN)
# [4] = odor concentration at which 1-NPN fluorescence intensity is halved
Molecule,binding with CcreOBP6 (CcreOBP6; [1]),relative fluorescence value (CcreOBP10; [1]),binding with CcreOBP10 (CcreOBP10; [1]),other results
"C1=CCCCC=CCCC1 [1,6-cyclodecadiene]",did not show any binding,–,–,–
"c1ccc(Nc2cccc3ccccc23)cc1 [1-NPN, N-phenyl-1-naphthylamine, reference compound]",–,–,–,Kd (CcreOBP6; [2]): 7.09 µM; Kd (CcreOBP10; [2]): 6.18 µM
C=C1CC/C=C(\C)CC[C@@H]2[C@@H]1CC2(C)C [1-caryophyllene],–,below 50%,–,–
C=CC(=C)CCC=C(C)C [Myrcene],–,below 50%,–,Ki (CcreOBP10; [3]): 13.8 µM; IC50 (CcreOBP10; [4]): 17.9 µM
C=C1CC[C@H]2O[C@]2(C)CC[C@@H]2[C@@H]1CC2(C)C [caryophyllene oxide],did not show any binding,–,–,–
CC(C)COC(=O)c1ccccc1C(=O)OCC(C)C [di-isobutyl phthalate],–,–,–,drop in the relative fluorescence value (CcreOBP10; [1]): 6.4%
CC12CCC(CC1)C(C)(C)O2 [eucalyptol],–,–,–,relative fluorescence value (CcreOBP6; [1]): 10.84%
CCCCCC=O [n-hexanal],did not show any binding,–,showed binding,–
CCC/C=C/C=O [trans-2-hexenal],strong binding affinities,below 50%,strong binding affinities,Ki (CcreOBP6; [3]): 12.9 µM; IC50 (CcreOBP6; [4]): 16.2 µM; repellent activity (males and females): good repellent activity
phytol,did not show any binding,–,showed binding,–
